The source made the active and inactive calls. The calls are words filed in the database; no cut-off is given here.
Experiments:
[1] = Inhibition of Staphylococcus aureus sortase A using Abz-LPATG-Dap(DNP)-NH2 as substrate preincubated for 1 hr followed by substrate addition by FRET assay
[2] = system: Staphylococcus aureus; test: Antibiofilm activity against Staphylococcus aureus assessed as inhibition of biofilm formation measured after 15 to 18 hrs by crystal violet staining assay; assay type: functional, organism-based
[3] = system: Staphylococcus aureus; test: Antibacterial activity against Staphylococcus aureus assessed as inhibition of bacterial invasion in HEK293T cells at 100 uM measured after 2 hrs by flow cytometry relative to control; assay type: functional, HEK-293T; parameters: scale not given: the % may be the effect or the level left
[4] = system: Staphylococcus aureus; test: Antibiofilm activity against Staphylococcus aureus assessed as inhibition of biofilm formation measured after 15 to 18 hrs in the presence of quercetin by crystal violet staining assay; assay type: functional, organism-based
[5] = system: Staphylococcus aureus; test: Inhibition of Staphylococcus aureus sortase A assessed as reduction in SpA expression at 100 uM measured after overnight incubation by flow cytometry relative to control
[6] = system: Staphylococcus aureus; test: Antibacterial activity against Staphylococcus aureus assessed as inhibition of bacterial invasion in HEK293T cells at 12.5 uM measured after 2 hrs by flow cytometry relative to control; assay type: functional, HEK-293T; parameters: scale not given: the % may be the effect or the level left
[7] = system: Staphylococcus aureus; test: Antibacterial activity against Staphylococcus aureus assessed as inhibition of bacterial invasion in HEK293T cells at 6.25 uM measured after 2 hrs by flow cytometry relative to control; assay type: functional, HEK-293T; parameters: scale not given: the % may be the effect or the level left
[8] = system: Staphylococcus aureus; test: Antibacterial activity against Staphylococcus aureus assessed as inhibition of bacterial invasion in HEK293T cells at 50 uM measured after 2 hrs by flow cytometry relative to control; assay type: functional, HEK-293T; parameters: scale not given: the % may be the effect or the level left
[9] = system: Staphylococcus aureus; test: Antibacterial activity against Staphylococcus aureus assessed as inhibition of bacterial invasion in HEK293T cells at 25 uM measured after 2 hrs by flow cytometry relative to control; assay type: functional, HEK-293T; parameters: scale not given: the % may be the effect or the level left
[10] = system: Staphylococcus aureus; test: Binding affinity to staphylococcus aureus sortase A assessed as covalent adduct formation by UPLC-TOF-MS analysis
[11] = system: Staphylococcus aureus; test: Binding affinity to staphylococcus aureus sortase A assessed as increase in molecular mass by LC-MS/MS analysis
[12] = system: Staphylococcus aureus; test: Binding affinity to staphylococcus aureus sortase A assessed as covalent adduct formation at Cys184 by LC-MS/MS analysis

| SMILES | IC50 [1] | also measured |
| --- | --- | --- |
| CC(C)CNC(=O)c1c(-c2ccc(/C(C#N)=C/c3ccccc3)cc2)oc2ccc(Cl)cc12 | 29.9 µM |  |
| COc1cccc2c(C(=O)NCC(C)C)c(-c3ccc(/C(C#N)=C/c4ccc(C)c(C)c4)cc3)oc12 | > 100 µM |  |
| Cc1cc(C)c(/C=C(\C#N)c2ccc(-c3oc4ccc(Cl)cc4c3C(=O)NCC(C)C)cc2)c(C)c1 | 37.9 µM |  |
| COc1ccc(/C=C(\C#N)c2ccc(-c3oc4c(OC)cccc4c3C(=O)NCC(C)C)cc2)cc1OC | 14.5 µM |  |
| CCc1ccc(/C=C(\C#N)c2ccc(-c3oc4c(OC)cccc4c3C(=O)NCC(C)C)cc2)cc1 | 48.6 µM |  |
| CC(C)CNC(=O)c1c(-c2ccc(/C(C#N)=C/c3ccc(F)cc3)cc2)oc2ccccc12 | 19.7 µM |  |
| CCc1ccc(/C=C(\C#N)c2ccc(-c3oc4ccccc4c3C(=O)NCC(C)C)cc2)cc1 | 9.4 µM |  |
| CC(C)CNC(=O)c1c(-c2ccc(/C(C#N)=C/c3ccc(Cl)cc3)cc2)oc2ccc(Cl)cc12 | 6.8 µM | IC50 [2]: 54.2 µM; Activity [3]: 4% |
| CC(C)CNC(=O)c1c(-c2ccc(/C(C#N)=C/c3ccc(C(F)(F)F)cc3)cc2)oc2ccccc12 | 12.2 µM |  |
| COc1cccc2c(C(=O)NCC(C)C)c(-c3ccc(/C(C#N)=C/c4ccc(Cl)cc4)cc3)oc12 | 5.9 µM |  |
| CC(C)CNC(=O)c1c(-c2ccc(/C(C#N)=C/c3ccc(OCc4ccccc4)c(OCc4ccccc4)c3)cc2)oc2ccccc12 | 3.3 µM | IC50 [2]: 2.1 µM; Activity [3]: 24%; IC50 [4]: 2.08 µM; inhibition [5]: 26.5%; Activity [6]: 7.4%; Activity [7]: 2.9%; Activity [8]: 19.1%; Activity [9]: 16% |
| COc1ccc(OC)c(/C=C(\C#N)c2ccc(-c3oc4ccc(Cl)cc4c3C(=O)NCC(C)C)cc2)c1 | 15.5 µM |  |
| COc1ccc(OC)c(/C=C(\C#N)c2ccc(-c3oc4c(OC)cccc4c3C(=O)NCC(C)C)cc2)c1 | 52.8 µM |  |
| COc1ccc(/C=C(\C#N)c2ccc(-c3oc4ccc(Cl)cc4c3C(=O)NCC(C)C)cc2)cc1 | 64.1 µM |  |
| CC(C)CNC(=O)c1c(-c2ccc(/C(C#N)=C/c3ccc(Br)cc3)cc2)oc2ccc(Cl)cc12 | 16.4 µM |  |
| CC(C)CNC(=O)c1c(-c2ccc(C(C#N)Cc3ccc(OCc4ccccc4)cc3)cc2)oc2ccccc12 (stereo unspecified) | 15 µM |  |
| COc1ccc(/C=C(\C#N)c2ccc(-c3oc4ccc(Cl)cc4c3C(=O)NCC(C)C)cc2)cc1OC | 49.1 µM |  |
| Cc1ccc(/C=C(\C#N)c2ccc(-c3oc4ccccc4c3C(=O)NCC(C)C)cc2)cc1C | 17.5 µM |  |
| Cc1cc(C)c(/C=C(\C#N)c2ccc(-c3oc4ccccc4c3C(=O)NCC(C)C)cc2)c(C)c1 | 32.2 µM |  |
| C=C(C#N)c1ccc(-c2oc3ccccc3c2C(=O)NCC(C)C)cc1 | 15.2 µM | Activity [10]: Active; Activity [11]: 344 Da; Activity [12]: Active |

| SMILES | IC50 [1] | also measured |
| --- | --- | --- |
| CCc1ccc(/C=C(\C#N)c2ccc(-c3oc4ccc(Cl)cc4c3C(=O)NCC(C)C)cc2)cc1 | 13.8 µM |  |
| Cc1ccc(/C=C(\C#N)c2ccc(-c3oc4ccc(Cl)cc4c3C(=O)NCC(C)C)cc2)cc1C | > 100 µM |  |
| COc1cccc2c(C(=O)NCC(C)C)c(-c3ccc(/C(C#N)=C/c4ccc(C)cc4)cc3)oc12 | 10.1 µM |  |
| CC(C)CNC(=O)c1c(-c2ccc(/C(C#N)=C/c3ccc(Br)cc3)cc2)oc2ccccc12 | 19.1 µM |  |
| COc1cccc2c(C(=O)NCC(C)C)c(-c3ccc(/C(C#N)=C/c4ccccc4C(=O)O)cc3)oc12 | 28.4 µM |  |
| CC(C)CNC(=O)c1c(-c2ccc(/C(C#N)=C/c3ccc(OCc4ccccc4)cc3)cc2)oc2ccccc12 | 6 µM |  |
| COc1cccc2c(C(=O)NCC(C)C)c(-c3ccc(/C(C#N)=C/c4ccc(Br)cc4)cc3)oc12 | 15.5 µM |  |
| COc1cccc2c(C(=O)NCC(C)C)c(-c3ccc(/C(C#N)=C/c4ccccc4)cc3)oc12 | 11.9 µM |  |
| COc1ccc(/C=C(\C#N)c2ccc(-c3oc4c(OC)cccc4c3C(=O)NCC(C)C)cc2)cc1 | 12.1 µM |  |
| CC(C)CNC(=O)c1c(-c2ccc(C(C#N)Cc3ccc(O)cc3)cc2)oc2ccccc12 (stereo unspecified) | 7.9 µM | IC50 [2]: 14.3 µM; Activity [3]: 2.8% |
| COc1ccc(OC)c(/C=C(\C#N)c2ccc(-c3oc4ccccc4c3C(=O)NCC(C)C)cc2)c1 | 21.8 µM |  |
| CC(C)CNC(=O)c1c(-c2ccc(C(C#N)Cc3ccc(O)c(O)c3)cc2)oc2ccccc12 (stereo unspecified) | 13.7 µM |  |
| COc1ccc(/C=C(\C#N)c2ccc(-c3oc4ccccc4c3C(=O)NCC(C)C)cc2)cc1 | 11.9 µM |  |
| CC(C)CNC(=O)c1c(-c2ccc(/C(C#N)=C/c3ccc(Cl)cc3)cc2)oc2ccccc12 | 9.8 µM |  |
| Cc1ccc(/C=C(\C#N)c2ccc(-c3oc4ccccc4c3C(=O)NCC(C)C)cc2)cc1 | 14.1 µM |  |
| CC(C)CNC(=O)c1c(-c2ccc(/C(C#N)=C/c3ccccc3)cc2)oc2ccccc12 | 8.8 µM | IC50 [2]: 19.7 µM; Activity [3]: 17.9% |
| Cc1ccc(/C=C(\C#N)c2ccc(-c3oc4ccc(Cl)cc4c3C(=O)NCC(C)C)cc2)cc1 | 47.1 µM |  |
| COc1ccc(/C=C(\C#N)c2ccc(-c3oc4ccccc4c3C(=O)NCC(C)C)cc2)cc1OC | 9.6 µM |  |
| CC(C)CNC(=O)c1c(-c2ccc(/C(C#N)=C/c3ccccc3C(=O)O)cc2)oc2ccccc12 | 9.7 µM |  |
